How the values were obtained:
human PBMCs [1] = experiment: Immunoassays for cytokines in human PBMCs; assay type: cell-based; details: hPBMC stimulated 12 h with graded concentrations
human TLR8 = molecular target: T1, human TLR8 (Homo sapiens, UniProt Q9NR97); experiment: Human TLR8-specific HEK-Blue reporter gene assay; assay type: cell-based; details: human TLR8-transfected HEK293 cells, NF-κB reporter
T1 sequence (Q9NR97 27-1041): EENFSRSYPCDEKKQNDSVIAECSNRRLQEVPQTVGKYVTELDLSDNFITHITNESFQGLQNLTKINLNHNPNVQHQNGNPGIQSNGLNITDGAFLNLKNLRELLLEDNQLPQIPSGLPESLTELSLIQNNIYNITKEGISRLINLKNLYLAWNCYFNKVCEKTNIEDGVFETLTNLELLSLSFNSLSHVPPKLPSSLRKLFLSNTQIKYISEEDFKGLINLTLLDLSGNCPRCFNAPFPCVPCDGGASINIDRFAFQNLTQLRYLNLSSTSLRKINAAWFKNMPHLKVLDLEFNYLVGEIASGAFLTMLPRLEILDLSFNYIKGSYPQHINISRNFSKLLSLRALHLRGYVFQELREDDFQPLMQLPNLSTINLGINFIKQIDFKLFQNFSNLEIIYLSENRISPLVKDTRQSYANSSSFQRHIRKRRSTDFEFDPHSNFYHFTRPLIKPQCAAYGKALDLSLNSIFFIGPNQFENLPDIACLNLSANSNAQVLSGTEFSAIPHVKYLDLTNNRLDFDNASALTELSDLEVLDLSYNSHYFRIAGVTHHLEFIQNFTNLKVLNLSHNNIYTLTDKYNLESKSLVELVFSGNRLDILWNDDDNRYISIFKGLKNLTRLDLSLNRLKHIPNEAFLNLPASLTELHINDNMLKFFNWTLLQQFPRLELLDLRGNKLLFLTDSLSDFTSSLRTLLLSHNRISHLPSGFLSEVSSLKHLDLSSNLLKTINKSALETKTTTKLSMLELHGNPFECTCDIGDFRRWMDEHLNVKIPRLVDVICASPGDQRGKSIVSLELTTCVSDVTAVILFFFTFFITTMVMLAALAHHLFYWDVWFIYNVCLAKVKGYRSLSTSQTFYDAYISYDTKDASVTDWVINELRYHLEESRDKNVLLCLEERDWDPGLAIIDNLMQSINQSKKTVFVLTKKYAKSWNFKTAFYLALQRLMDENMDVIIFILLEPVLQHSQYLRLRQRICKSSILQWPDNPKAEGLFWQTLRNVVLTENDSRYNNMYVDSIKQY

human PBMCs [2] = experiment: Transcriptomal profiling in human PBMCs; assay type: cell-based; details: human PBMC, 10 μg/mL, two hours, fold change threshold 2.0
NF-κB = details: previously observed; cited from earlier work
[3] = previously observed; cited from earlier work
[4] = cited from earlier work

Question: For `Cc1ncc(CO)c2c(Nc3ccccn3)c(NCc3ccccc3)oc12` [Compound 28, (2-(benzylamino)-7-methyl-3-(pyridin-2-ylamino)furo[2,3-c]pyridin-4-yl)methanol], which proinflammatory cytokine induction (human PBMCs [1]) is on record?
Answer: none of the furo[2,3-c]pyridines showed any proinflammatory cytokine induction

Question: With `Cc1ncc(CO)c2c(Nc3ccccc3)c(NCc3ccccc3)oc12` [Compound 36, (2-(benzylamino)-7-methyl-3-(phenylamino)furo[2,3-c]pyridin-4-yl)methanol] as the compound, how does the “dose-response profile (area-under the-curve) remark” value (“dose-response profile” for short) (human TLR8) read?
Answer: Very low AUC

Question: With `CCCCNc1oc2c(C)ncc(CO)c2c1Nc1ccccn1` [Compound 37a, (2-(butylamino)-7-methyl-3-(pyridin-2-ylamino)furo[2,3-c]pyridin-4-yl)methanol] as the compound, how does the proinflammatory cytokine induction (human PBMCs [1]) read?
Answer: none of the furo[2,3-c]pyridines showed any proinflammatory cytokine induction

Question: Which proinflammatory cytokine induction (human PBMCs [1]) does the source give for `CCCCCNc1oc2c(C)ncc(CO)c2c1Nc1ccccn1` [Compound 37b, (7-methyl-2-(pentylamino)-3-(pyridin-2-ylamino)furo[2,3-c]pyridin-4-yl)methanol] here?
Answer: none of the furo[2,3-c]pyridines showed any proinflammatory cytokine induction

Question: And the “chemokine ligand gene expression” value (human PBMCs [2])?
Answer: upregulated several chemokine ligand (both CXCL and CCL) genes

Question: What about the “transcriptional signatures of inflammation” value (human PBMCs [2]) of the same compound?
Answer: no transcriptional signatures of inflammation

Question: With `CCCC(C)Nc1oc2c(C)ncc(CO)c2c1Nc1ccccn1` (stereo not drawn) [Compound 37d, (7-methyl-2-(pentan-2-ylamino)-3-(pyridin-2-ylamino)furo[2,3-c]pyridin-4-yl)methanol] as the compound, how does the “dose-response profile” value (human TLR8) read?
Answer: Low AUC

Question: Which proinflammatory cytokine induction (human PBMCs [1]) does the source give for `Cc1ncc(CO)c2c(Nc3ccccn3)c(NC[Si](C)(C)C)oc12` [Compound 37f, (7-methyl-3-(pyridin-2-ylamino)-2-(((trimethylsilyl)methyl)amino)furo[2,3-c]pyridin-4-yl)methanol] here?
Answer: none of the furo[2,3-c]pyridines showed any proinflammatory cytokine induction

Question: And the “chemokine ligand gene expression” value (human PBMCs [2])?
Answer: upregulated several chemokine ligand (both CXCL and CCL) genes

Question: What about the “transcriptional signatures of inflammation” value (human PBMCs [2]) of the same compound?
Answer: no transcriptional signatures of inflammation

Question: With `Cc1ncc(CO)c2c(Nc3ccccn3)c(NCCC(=O)OC(C)(C)C)oc12` [Compound 37i, tert-butyl 3-((4-(hydroxymethyl)-7-methyl-3-(pyridin-2-ylamino)furo[2,3-c]pyridin-2-yl)amino)propanoate] as the compound, how does the “dose-response profile” value (human TLR8) read?
Answer: Low AUC

Question: With `Cc1ncc(CO)c2c(Nc3ccccn3)c(N[C@@H](C)c3ccccc3)oc12` [Compound 37m, (S)-(7-methyl-2-((1-phenylethyl)amino)-3-(pyridin-2-ylamino)furo[2,3-c]pyridin-4-yl)methanol] as the compound, how does the “dose-response profile” value (human TLR8) read?
Answer: Very low AUC

Question: Which “dose-response profile” value (human TLR8) does the source give for `CCCCCNc1oc2c(C)ncc(CO)c2c1Nc1ccccc1` [Compound 38a, (7-methyl-2-(pentylamino)-3-(phenylamino)furo[2,3-c]pyridin-4-yl)methanol] here?
Answer: Low AUC

Question: With `CCCCCNc1oc2c(C)ncc(CO)c2c1Nc1cccc(F)c1` [Compound 38b, (3-((3-fluorophenyl)amino)-7-methyl-2-(pentylamino)furo[2,3-c]pyridin-4-yl) methanol] as the compound, how does the “dose-response profile” value (human TLR8) read?
Answer: Low AUC

Question: Which “dose-response profile” value (human TLR8) does the source give for `CCCCCNc1oc2c(C)ncc(CO)c2c1Nc1cccc([N+](=O)[O-])c1` [Compound 38c, (7-methyl-3-((3-nitrophenyl)amino)-2-(pentylamino)furo[2,3-c]pyridin-4-yl)methanol] here?
Answer: Low AUC

Question: With `Clc1ccc2c(NCCCCNc3ccnc4cc(Cl)ccc34)ccnc2c1` [Compound 41, 7-chloro-N-(4-(7-chloroquinolin-4-ylamino)butyl) quinolin-4-amine] as the compound, how does the NF-κB transactivation (NF-κB) read?
Answer: potent NF-κB transactivation

Question: And the proinflammatory cytokine induction [3]?
Answer: unaccompanied by any proinflammatory cytokine induction

Question: What about the adjuvantic activity [4] of the same compound?
Answer: potent adjuvant
